Data reported in patent US20230143612A1 (Arbutus Biopharma Corporation, priority 2020, published 2023).
pIC50: −log10 of the molar value.

The compounds below were run against PD-L1 His protein / PD-1 Fc protein (Homo sapiens, UniProt Q9NZQ7) (assay: HTRF Assay (PD-1/PD-L1 interaction)). Details: PD-L1 His 6 nM, PD-1 Fc 6 nM.
Type: binding
In short: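 HTRF: PD-L1 His (6 nM final), compound (3-fold dilutions, 20 μM to 0.001 μM final) and PD-1 Fc (6 nM final) preincubated 15 min at room temperature. Anti-human IgG-XL665 and anti-6HIS Tb cryptate (mixed at 6.7 nM and 0.35 nM) then added for 1 h at room temperature before reading.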

Sequence of PD-L1 His protein / PD-1 Fc protein (Q9NZQ7 19-238 limits assumed): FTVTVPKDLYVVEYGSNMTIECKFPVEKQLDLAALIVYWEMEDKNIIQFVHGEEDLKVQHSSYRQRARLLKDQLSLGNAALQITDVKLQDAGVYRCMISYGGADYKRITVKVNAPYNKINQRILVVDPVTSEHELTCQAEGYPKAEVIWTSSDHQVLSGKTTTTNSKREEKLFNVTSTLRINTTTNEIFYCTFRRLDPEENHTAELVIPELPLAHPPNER

Q: With `COC(=O)C1CN(Cc2cc(=O)n3ccc(-c4cccc(-c5cccc(-c6ccc(CNC[C@@H]7CCC(=O)N7)c(OC)n6)c5Cl)c4Cl)cc3n2)C1` [Example 343, (S)-Methyl 1-((8-(2,2′-dichloro-3′-(6-methoxy-5-((((5-oxopyrrolidin-2-yl)methyl)amino)methyl)pyridin-2-yl)-[1,1′-biphenyl]-3-yl)-4-oxo-4H-pyrido[1,2-a]pyrimidin-2-yl)methyl) azetidine-3-carboxylate] as the compound, how does the pIC50 read?
A: 10.00

Q: With `COC(=O)N(C)CCN(C)Cc1ccc(-c2cccc(-c3cccc(-c4ccn5c(=O)c(CN(C)CCN(C)C(=O)OC)cnc5c4)c3Cl)c2Cl)nc1OC` [Example 299, methyl (2-(((8-(2,2′-dichloro-3′-(6-methoxy-5-(((2-((methoxycarbonyl)(methyl)amino)ethyl)(methyl)amino)methyl)pyridin-2-yl)-[1,1′-biphenyl]-3-yl)-4-oxo-4H-pyrido[1,2-a]pyrimidin-3-yl)methyl)(methyl)amino)ethyl)(methyl)carbamate] as the compound, how does the pIC50 read?
A: 5.52

Q: With `COc1nc(-c2cccc(-c3cccc(-c4cc5c(=O)n(C)c(CNCC6CC(F)(F)C(=O)N6)nn5c4)c3Cl)c2Cl)ccc1CNC[C@@H]1CCC(=O)N1` (mixture of isomers) [Example 450, 6-[2-Chloro-3-[2-chloro-3-[6-methoxy-5-[[[rac-(2S)-5-oxopyrrolidin-2-yl]methylamino]methyl]-2-pyridyl]phenyl]phenyl]-2-[[(4,4-difluoro-5-oxo-pyrrolidin-2-yl)methylamino]methyl]-3-methyl-pyrrolo[2,1-f][1,2,4]triazin-4-one] as the compound, how does the pIC50 read?
A: 7.92

Q: How did the pIC50 turn out when `COc1nc(-c2cccc(-c3cccc(-c4ccn5c(=O)c(CN6CC(CO)C6)cnc5c4)c3Cl)c2Cl)ccc1CN1CC[C@H](C(=O)O)C1` [Example 135, (S)-1-((6-(2,2′-Dichloro-3′-(3-((3-(hydroxymethyl)azetidin-1-yl)methyl)-4-oxo-4H-pyrido[1,2-a]pyrimidin-8-yl)-[1,1′-biphenyl]-3-yl)-2-methoxypyridin-3-yl)methyl)pyrrolidine-3-carboxylic acid] was run?
A: 9.70

Q: `COc1nc(-c2cccc(-c3cccc(-c4ccc5c(n4)OCCNC5)c3Cl)c2Cl)ccc1CNC[C@@H]1CCC(=O)N1` [Example 218, (S)-5-((((6-(2,2′-Dichloro-3′-(2,3,4,5-tetrahydropyrido[3,2-f][1,4]oxazepin-8-yl)-[1,1′-biphenyl]-3-yl)-2-methoxypyridin-3-yl)methyl)amino)methyl)887yrrolidine-2-one] was tested. Which pIC50 did it give?
A: 9.22

Q: With `COc1nc(-c2cccc(-c3cccc(-c4cnc5c(c4)CNCC(=O)N5)c3Cl)c2Cl)ccc1CNC[C@@H]1CCC(=O)N1` [Example 403, (S)-7-(2,2′-Dichloro-3′-(6-methoxy-5-((((5-oxopyrrolidin-2-yl)methyl)amino)methyl)pyridin-2-yl)-[1,1′-biphenyl]-3-yl)-1,3,4,5-tetrahydro-2H-pyrido[2,3-e][1,4]diazepin-2-one] as the compound, how does the pIC50 read?
A: 10.00

Q: With `COc1nc(-c2cccc(-c3cccc(-c4ccn5c(=O)c(CNC[C@@H]6CCC(=O)N6)cnc5c4)c3Cl)c2Cl)ccc1CNCCO` [Example 102, (S)-8-(2,2′-Dichloro-3′-(5-(((2-hydroxyethyl)amino)methyl)-6-methoxypyridin-2-yl)-[1,1′-biphenyl]-3-yl)-3-((((5-oxopyrrolidin-2-yl)methyl)amino)methyl)-4H-pyrido[1,2-a]pyrimidin-4-one] as the compound, how does the pIC50 read?
A: 8.15

Q: How did the pIC50 turn out when `Cc1c(-c2ccn3c(=O)c(CNC[C@@H]4CCC(=O)N4)cnc3c2)cccc1-c1cccc(-c2ccc(CNC[C@@H]3CCC(=O)N3)cc2)c1Cl` [Example 65, 8-(2′-Chloro-2-methyl-4″-(((((S)-5-oxopyrrolidin-2-yl)methyl)amino)methyl)-[1,1′:3′,1″-terphenyl]-3-yl)-3-(((((S)-5-oxopyrrolidin-2-yl)methyl)amino)methyl)-4H-pyrido[1,2-a]pyrimidin-4-one] was run?
A: 8.25

Q: `COc1nc(-c2cccc(-c3cc(Cl)cc(-c4ccn5c(=O)c(CNC[C@@H]6CCC(=O)N6)cnc5c4)c3Cl)c2Cl)ccc1CNC[C@@H]1CCC(=O)N1` [Example 141, 3-(((((S)-5-Oxopyrrolidin-2-yl)methyl)amino)methyl)-8-(2,2′,5-trichloro-3′-(6-methoxy-5-(((((S)-5-oxopyrrolidin-2-yl)methyl)amino)methyl)pyridin-2-yl)-[1,1′-biphenyl]-3-yl)-4H-pyrido[1,2-a]pyrimidin-4-one] was tested. Which pIC50 did it give?
A: 8.24

Q: How did the pIC50 turn out when `COc1nc(-c2cccc(-c3cccc(-c4ccc5ncc(CNC[C@@H]6CCC(=O)N6)n5c4)c3Cl)c2Cl)ccc1CNC[C@@H]1CCC(=O)N1` [Example 389, (5S)-5-[[[6-[2-Chloro-3-[2-chloro-3-[3-[[[(2S)-5-oxopyrrolidin-2-yl]methylamino]methyl]imidazo[1,2-a]pyridin-6-yl]phenyl]phenyl]-2-methoxy-3-pyridyl]methylamino]methyl]pyrrolidin-2-one] was run?
A: 7.40

Q: With `COc1nc(-c2cccc(-c3cccc(-c4ccn5c(=O)c(CN(C)[C@H]6C[C@](C)(O)C6)cnc5c4)c3Cl)c2Cl)ccc1CNC[C@@H]1CCC(=O)N1` [Example 318, 8-(2,2′-Dichloro-3′-(6-methoxy-5-(((((S)-5-oxopyrrolidin-2-yl)methyl)-amino)-methyl)-pyridin-2-yl)-[1,1′-biphenyl]-3-yl)-3-((((1r,3r)-3-hydroxy-3-methylcyclobutyl)(methyl)amino)methyl)-4H-pyrido[1,2-a]pyrimidin-4-one] as the compound, how does the pIC50 read?
A: 10.00

Q: With `COc1nc(-c2cccc(-c3cc(F)cc(-c4ccn5c(=O)c(CNC[C@@H]6CCC(=O)N6)cnc5c4)c3Cl)c2Cl)ccc1CNC[C@@H]1CCC(=O)N1` [Example 140, 8-(2,2′-Dichloro-5-fluoro-3′-(6-methoxy-5-(((((S)-5-oxopyrrolidin-2-yl)methyl)amino)methyl)pyridin-2-yl)-[1,1′-biphenyl]-3-yl)-3-(((((S)-5-oxopyrrolidin-2-yl)methyl)amino)methyl)-4H-pyrido[1,2-a]pyrimidin-4-one] as the compound, how does the pIC50 read?
A: 8.70

Q: With `COc1nc(-c2cccc(-c3cccc(-c4cc5c(=O)n(C)c(CNCCCF)nn5c4)c3Cl)c2Cl)cc(Cl)c1CNC[C@@H]1CCC(=O)N1` [Example 490, (S)-6-(2,2′-Dichloro-3′-(4-chloro-6-methoxy-5-((((5-oxopyrrolidin-2-yl)methyl)amino)methyl)pyridin-2-yl)-[1,1′-biphenyl]-3-yl)-2-(((3-fluoropropyl)amino)methyl)-3-methylpyrrolo[2,1-f][1,2,4]triazin-4(3H)-one] as the compound, how does the pIC50 read?
A: 10.00

Q: How did the pIC50 turn out when `COC(=O)CNCc1c(C)nc2cc(-c3cccc(-c4cccc(-c5ccc(CNC[C@@H]6CCC(=O)N6)c(OC)n5)c4Cl)c3Cl)ccn2c1=O` [Example 269, (S)-Methyl 2-(((8-(2,2′-dichloro-3′-(6-methoxy-5-((((5-oxopyrrolidin-2-yl)methyl)amino)methyl)pyridin-2-yl)-[1,1′-biphenyl]-3-yl)-2-methyl-4-oxo-4H-pyrido[1,2-a]pyrimidin-3-yl)methyl)amino)acetate] was run?
A: 9.00

Q: How did the pIC50 turn out when `Cc1c(COc2cc(OCc3cncc(C#N)c3)c(CNCCO)cc2Cl)cccc1-c1cccc(-c2ccn3c(=O)c(CNCCO)cnc3c2)c1` [Example 4, 5-((4-Chloro-2-(((2-hydroxyethyl)amino)methyl)-5-((3′-(3-(((2-hydroxyethyl)amino)methyl)-4-oxo-4H-pyrido[1,2-a]pyrimidin-8-yl)-2-methyl-[1,1′-biphenyl]-3-yl)methoxy)phenoxy)methyl)nicotinonitrile] was run?
A: 8.70

Q: With `COc1nc(-c2cccc(-c3cccc(-c4cc5c(=O)n(C)c(CNCC(C)(C)O)nn5c4)c3Cl)c2Cl)ccc1CNC[C@@H]1CCC(=O)N1` [Example 405, (S)-6-(2,2′-Dichloro-3′-(6-methoxy-5-((((5-oxopyrrolidin-2-yl)methyl)amino)methyl)pyridin-2-yl)-[1,1′-biphenyl]-3-yl)-2-(((2-hydroxy-2-methylpropyl)amino)methyl)-3-methylpyrrolo [2,1-f][1,2,4]triazin-4(3H)-one] as the compound, how does the pIC50 read?
A: 7.08

Q: `COc1nc(-c2cccc(-c3cccc(-c4ccn5c(=O)c(CNC6(C(=O)O)CC6)cnc5c4)c3Cl)c2Cl)ccc1CNC[C@@H]1CCC(=O)N1` [Example 120, (S)-1-(((8-(2,2′-Dichloro-3′-(6-methoxy-5-((((5-oxopyrrolidin-2-yl)methyl)amino)methyl)-pyridin-2-yl)-[1,1′-biphenyl]-3-yl)-4-oxo-4H-pyrido[1,2-a]pyrimidin-3-yl)methyl)amino)-cyclopropane-1-carboxylic acid] was tested. Which pIC50 did it give?
A: 9.40

Q: With `COc1nc(-c2cccc(-c3cccc(-c4cnc5c(CNC[C@@H]6CCC(=O)N6)cnn5c4)c3Cl)c2Cl)ccc1CNC[C@@H]1CCC(=O)N1` [Example 310, (S)-5-((((6-(2,2′-Dichloro-3′-(3-(((((S)-5-oxopyrrolidin-2-yl)methyl)amino)methyl)pyrazolo[1,5-a]pyrimidin-6-yl)-[1,1′-biphenyl]-3-yl)-2-methoxypyridin-3-yl)methyl)amino)methyl)pyrrolidin-2-one] as the compound, how does the pIC50 read?
A: 9.70

Q: With `COc1nc(-c2cccc(-c3cccc(-c4cc5c(=O)n(C)c(CNCC6(F)CC6)nn5c4)c3Cl)c2Cl)ccc1CNC[C@@H]1CCC(=O)N1` [Example 463, (S)-6-(2,2′-Dichloro-3′-(6-methoxy-5-((((5-oxopyrrolidin-2-yl)methyl)amino)methyl)pyridin-2-yl)-[1,1′-biphenyl]-3-yl)-2-((((1-fluorocyclopropyl)methyl)amino)methyl)-3-methylpyrrolo[2,1-f][1,2,4]triazin-4(3H)-one] as the compound, how does the pIC50 read?
A: 7.44
